Measured values: patent US10472330B2, “Substituted triazenes protected from degradation by carboxylation of N1” (ARIZONA BOARD OF REGENTS ON BEHALF OF THE UNIVERSITY OF …, priority 2015, dated 2019)

Legend:
Type in all cases: physicochemical
[1] = Acid-triggered diazonium formation; details: methanolic HCl or exposure to acid; trapped with resorcinol or Tyr 6
Description: (§1) As another non-limiting example, an azide (e.g., NHS-azide) to N-heterocyclic carbene (NHC) route may be used to synthesize triazabutadiene molecules (e.g., see FIG. 6C). For example, as shown in Compound 4 of FIG. 6D, a triazabutadiene molecule was synthesized from dimethyl imidazole derived NHC and phenyl azide. […] This change was confirmed to coincide with diazonium formation by trapping the reactive species with resorcinol to provide known diazo dye Sudan Orange G. When the triazabutadiene molecule (Compound 4) was treated with the much less acidic acetic acid, the same product was obtained.
To further examine the reactivity of this class of compounds, variants Compound 6d and Compound 6e were synthesized (see FIG. 6G). It was hypothesized that the p-methoxy and p-nitro analogs (Compound 6d and Compound 6e, respectively) would display different reactivity profiles. […] After collecting the precipitate and dissolving it in deuterated methanol, no change was observed from a sample of Compound 6e that had never been exposed to a buffered solution. […]

Solubility observations = assay: Solubility observations
Method: It is possible that Compound A may be useful as a photo-catalytic base in the context of organic reactions. […] As noted previously, Compound A is quite stable to an excess of acetic acid in DMSO, showing only 12% degradation over 14 hours at room temperature. […] To confirm that this was due to the acid, a solution of Compound A (in pure DMSO) was irradiated. After four hours of constant irradiation in acid-free DMSO, an E:Z ratio of nearly 50:50 was observed.
as §1
(§2) To render the triazabutadiene water-soluble, methyl imidazole was alkylated with propane sultone to provide the Zwitterionic NHC precursor Compound 5a (see FIG. 6E). […] Compound 6a was highly colored, so its pH dependence was studied using UV/vis. The reactions were not only pH-, but also scan-frequency dependent. Upon finding this, the stability of Compound 6a was studied in D2O in the dark using NMR. Even in the dark it was unstable, but not in the diazonium-forming way. Both Compound 6b and a more hindered mesityl (Mes) substituted Compound 6c (see FIG. 6E) were synthesized to stabilize what was initially considered to be a rearrangement pathway that could be blocked by steric repulsion. […] Dissolution in 0.1 N NaOH rendered all compounds stable (e.g., no detectable degradation after 24 hours in the dark).
(§3) To further examine the reactivity of this class of compounds, variants Compound 6d and Compound 6e were synthesized (see FIG. 6G). It was hypothesized that the p-methoxy and p-nitro analogs (Compound 6d and Compound 6e, respectively) would display different reactivity profiles. […] After collecting the precipitate and dissolving it in deuterated methanol, no change was observed from a sample of Compound 6e that had never been exposed to a buffered solution. […] It is possible that: 1) that the sodium salt of Compound 6e is much less soluble than the potassium salt; or 2) with different solvating ions present the sulfonate interacts with the electron-poor N2 nitrogen atom of the triazabutadiene to break conjugation and form an insoluble complex (this is backed by a reversible color change of the starting rust-red solid, to the light yellow precipitate). […]

[2] = Decomposition in D2O / buffers followed by NMR; details: for Compound consumed after 24 hours: D2O, in the dark
Method: For decomposition experiments, buffers were made to the appropriate pH in a 9:1 mix of H2O:D2O. These solutions were added to the compound being assayed such that the buffer capacity was at least 10 fold the concentration of the compound. Some experiments used 5 mg compound in 0.5 mL of buffer (e.g., pH 5 acetate buffer at 25 degrees C.). These were immediately inserted into an NMR instrument and scans were taken at even time intervals to calculate the half-life of the compound based on integration.
as §2
As mentioned above, Compound 6c was reasonably stable in pure D2O. Upon adjusting the pH to 5 with HCl, a rapid initial consumption of Compound 6c to Compound 7 (see FIG. 6E) and a benzenediazonium salt was noted. After this initial burst of reactivity, a slowing and apparent arresting of the reaction was noted. At this pH the hydronium was the limiting reagent. All future reactions were run in buffers with a buffer capacity sufficient to maintain a large excess of hydronium ions. The experiments were performed in 90:10 H2O:D2O buffered solutions to minimize considerations of pH vs. pD. The decomposition to diazonium salts and Compound 7 was measured as a function of pH in phosphate/citrate buffers from pH 4-7 and in a phosphate buffer from pH 6-8. All runs provided linear correlations of concentration and time, indicating a pseudo-zero order reaction (first order with respect to hydronium ion with a large excess of hydronium ions). While the peaks for Compound 7 remained constant, the peaks associated with Compound 6c drifted downfield as the reaction progressed. This drifting was highly reproducible across samples and buffers, but the underlying cause is not understood at this time. A sigmoidal correlation between rate and buffer pH centered at pH 6 was obtained. When resorcinol was not added to consume the diazonium species, 4-phenylazophenol (Compound 8) was observed (see FIG. 6F). Compound 8 came from the decomposition of one diazonium ion to phenol followed by reaction with a second diazonium ion. The instability of Compound 6c in a pH 7 phosphate buffer was surprising given the stability in D2O. Compound 6c was tested in a non-buffered 90:10 H2O:D2O solution and observed only […] after 6 hours.
as §3

[3] = Hydrolysis (deprotection) rate of protected triazabutadienes; details: relative to ethyl carbamate 7, FIG. 8G
Method: The reaction is assumed to be second order with the addition of hydroxide to be the rate-determining step.
Without wishing to limit the present invention to any theory or mechanism, it is believed that this can be rationalized by a model whereby the carbonyl is stabilized by being more electron rich and thus less prone to nucleophilic attack.
The reaction is assumed to be second order with the addition of hydroxide to be the rate-determining step. […] Compound was in a concentration of 31 μM in 25 mM sodium borate buffer of pH 10 with scans every 60 seconds. […] Scans were obtained every 60 seconds.

[4] = In situ real-time pH measurement upon UV irradiation; details: compared with Compound A
Method: In an effort to examine the rate order for the pH-increasing reaction more carefully, in situ, real-time pH measurements were acquired. Compound A was dissolved in water and the pH of the solution was adjusted to 9 such that it would not form Compound B in the absence of light. […] This spike was not at all consistent with the model of the pH increase being solely linked to the concentration of Compound B being generated.
A sample was irradiated and then the light was turned off once the pH of the solution started to increase noticeably. […] The experiment was repeated with increasing times of irradiation, and a saw-tooth pattern was obtained. The process was not completely reversible due to some degradation to Compound B. Indeed, triazabutadiene Compound A can serve a dual role of being a photo-masked base (see FIG. 4B(i)), and a base whose intrinsic functional group properties are altered photochemically (FIG. 4B(iii)).
Referring to FIG. 5A(iii), Compound C and Compound D were examined in an effort to find a base that was reversibly basic but also more resistant to degradation.

[5] = Photo-induced degradation of triazabutadienes under hand-held UV lamp, followed by NMR; details: buffered borate solution, UV lamp, NMR integration
Method: (i) The reaction was monitored by comparing starting materials (A, C, D, and E) with product (B); (ii) Peak absorption and extinction coefficients for all of the compounds were excitable by the UV source used; (iii) Time-dependent conversion of compounds was measured by NMR integration.
Referring to FIG. 5A, in some embodiments, triazabutadiene molecules of the present invention may readily photoisomerize to a more reactive Z-form. As an example, an aqueous solution of Compound A was irradiated with a simple hand-held UV lamp (“365 nm,” measured at 350 nm). Consumption of Compound A was observed after only a few hours. […] Without wishing to limit the present invention to any theory or mechanism, it was hypothesized that if a two-electron process were happening, then Compound A-Z would be more basic than Compound A-E. A 1.0 N NaOH solution of Compound A was treated with light. […] Benzene diazonium ions also absorb UV light to expel nitrogen and generate a benzene radical. In order to resolve if the initial cleavage undergoes a radical homolytic mechanism versus a two-electron heterolytic mechanism, a trapping experiment using resorcinol was conducted. (Resorcinol was chosen because it can serve a dual role as a radical scavenger and a trap benzene diazonium species that could be formed.) An excess of resorcinol was added to a pH 9 borate-buffered solution of Compound A and the mixture was irradiated with light. The known azobenzene, Sudan Orange G, was formed in a 65% yield (versus 4% for the non-irradiated reaction). Derivatives of Compound A were made to examine the effects of electronic perturbations on the light-induced degradation. […] A buffered borate solution was chosen due to its alkaline nature and lack of complicating signals in the NMR experiment. Compounds C-E all have absorption spectra that are well within the range of the UV lamp (see FIG. 5A(ii)).

Cn1ccn(C)c1=NN=Nc1ccccc1 [Compound 4]
Response to acid (diazonium formation) [1]: rapid color change | Water solubility (Solubility observations): not water-soluble

Cn1ccn(CCCS(=O)(=O)O)c1=NN=Nc1ccccc1 [Compound 6a]
Water solubility (Solubility observations): highly water soluble | Compound consumed after 24 hours ([2]; NMR): 50%

CC(C)(C)n1ccn(CCCS(=O)(=O)O)c1=NN=Nc1ccccc1 [Compound 6b]
Compound consumed after 24 hours ([2]; NMR): 50%

Cc1cc(C)c(-n2ccn(CCCS(=O)(=O)[O-])c2=NN=Nc2ccccc2)c(C)c1.[K+] [Compound 6c, Potassium 3-(3-mesityl-2-(phenyltriaz-2-en-1-ylidene)-2,3-dihydro-1H-imidazol-1-yl) propane-1-sulfonate]
Compound consumed after 24 hours ([2]; NMR): less than 10% | Compound consumed after 6 hours ([2]; non-buffered 90:10 H2O:D2O): > 7% | pH at centre of sigmoidal correlation between decomposition rate and buffer pH ([2]; phosphate/citrate pH 4-7 and phosphate pH 6-8 buffers, 90:10 H2O:D2O): 6

COc1ccc(N=NN=c2n(CCCS(=O)(=O)[O-])ccn2-c2c(C)cc(C)cc2C)cc1.[K+] [Compound 6d]
Compound consumed after 24 hours ([2]; NMR): 26%

Cc1cc(C)c(-n2ccn(CCCS(=O)(=O)[O-])c2=NN=Nc2ccc([N+](=O)[O-])cc2)c(C)c1.[K+] [Compound 6e]
Response to acid (diazonium formation) [1]: immediate color change | Behaviour in buffered solution (solubility) (Solubility observations; pH 5, 6 and 7 phosphate/citrate buffer): rapidly precipitated out of solution | Stability after 24 hours ([2]; pure D2O, dark, room temperature, NMR): stable to within the detection limit of NMR

CCOC(=O)N(N=Nc1n(-c2c(C)cc(C)cc2C)cc[n+]1-c1c(C)cc(C)cc1C)c1ccc(C)cc1.[Cl-] [Compound 8]
Effect of substituent on rate of deprotection / hydrolysis [3]: slowed the rate of deprotection moderately

CCOC(=O)N(N=Nc1n(-c2c(C)cc(C)cc2C)cc[n+]1-c1c(C)cc(C)cc1C)c1ccc(OC)cc1.[Cl-] [Compound 9]
Effect of substituent on rate of deprotection / hydrolysis [3]: rate could not be determined

CCOC(=O)N(N=Nc1n(-c2c(C)cc(C)cc2C)cc[n+]1-c1c(C)cc(C)cc1C)c1ccc(C(F)(F)F)cc1.[Cl-] [Compound 10]
Effect of substituent on rate of deprotection / hydrolysis [3]: slowed hydrolysis

CCOC(=O)N(N=Nc1n(-c2c(C)cc(C)cc2C)cc[n+]1-c1c(C)cc(C)cc1C)c1ccc([N+](=O)[O-])cc1.[Cl-] [Compound 11]
Effect of substituent on rate of deprotection / hydrolysis [3]: slowed hydrolysis

Cc1cc(C)c(-n2cc[n+](-c3c(C)cc(C)cc3C)c2N=NN(C(=O)OCC(C)(C)C)c2ccccc2)c(C)c1.[Cl-] [Compound 12]
Effect of substituent on rate of deprotection / hydrolysis [3]: small change in rate

Cc1cc(C)c(-n2cc[n+](-c3c(C)cc(C)cc3C)c2N=NN(C(=O)OC(C)C)c2ccccc2)c(C)c1.[Cl-] [Compound 13]
Effect of substituent on rate of deprotection / hydrolysis [3]: small change in rate

Cc1cc(C)c(-n2ccn(CCCS(=O)(=O)[O-])c2=NN=Nc2cccc([N+](=O)[O-])c2)c(C)c1.[K+] [Compound C]
pH change on irradiation [4]: slow subtle change to the pH | Relative rate of light-induced degradation [5]: slower than Compound A

Cc1cc(C)c(-n2ccn(CCCS(=O)(=O)[O-])c2=NN=Nc2ccc(C#N)cc2)c(C)c1.[K+] [Compound D]
pH change on irradiation [4]: slow subtle change to the pH | Relative rate of light-induced degradation [5]: slower than Compound A

Cc1cc(C)c(-n2ccn(CCCS(=O)(=O)[O-])c2=NN=Nc2ccc([N+](=O)[O-])cc2)c(C)c1.[K+] [Compound E]
Relative rate of light-induced degradation [5]: recalcitrant to degradation
